The source of these data is US20260256909A1, “COMBINATION OF A BTN3A ACTIVATING ANTIBODY, A BCL2 INHIBITOR AND HYPOMETHYLATING AGENT FOR USE IN TREATING CANCER” (Imcheck Therapeutics, priority 2022, published 2026).

Format in all cases: cell-based, human
The test system of test [1] is Vγ9Vδ2 T cells. In words: Proliferation of Vγ9Vδ2 T cells in HD-PBMC (CellTrace Violet). The settings on record: day 4, ICT01 1 μg/mL; for ICT01 and IL2-induced proliferation of Vγ9Vδ2 T cells: 50 IU/mL IL2; for increase of ICT01-induced proliferation of Vγ9Vδ2 T cells: absence of IL2. On the procedure:
Finally, freshly isolated human PBMC from healthy donors (HD, n=6) were labeled with CellTrace Violet stain (CTV, Invitrogen) to determine cell proliferation upon treatment with ICT01 or its isotype control (hIgG1S) used at 1 μg/mL in the presence or absence of increasing concentrations of Venetoclax (0-0.1 μM), 5-Azacytidine (0-0.4 μM) or the combination in PBMC medium (RPMI 1640 Medium supplemented with 10% FBS, 1% Penicillin/Streptomycin and 1 mM Sodium Pyruvate). Half of the cells were additionally treated with 50 IU/mL IL2. Cells were harvested on day 4, centrifuged at 1800 rpm for 5 minutes and then incubated 10 minutes at RT with 25 μl of FcR blocking reagent (Miltenyi Biotec) before adding 25 μL of the following antibody mix prepared in PBS+2% FBS+2 mM EDTA (FACS buffer): anti-CD4-BV650, CD56-FITC, Vδ2-PE, CD3-PE-CF594 and CD8-A700 antibodies for the identification of immune subsets, and a viability marker (LIVE/DEAD™ Fixable Dead Cell Stain) was added to distinguish live from dead cells. Cells were incubated 20 minutes at 4° C. and washed 2 times in FACS buffer before flow cytometry analysis.

Test [2] deals with Raji (Burkitts Lymphoma). In words: Killing of Raji cells in co-culture with HD-PBMC (flow cytometry). The settings on record: co-culture with HD-PBMC ratio 5:1, 48 hrs. On the procedure: (§1) Raji cells (Burkitt Lymphoma) or JVM2 cells (Chronic-B cell Leukemia) were co-cultured with HD-PBMC at ratio 5:1 in presence of ICT01 or isotype control (0.1 μg/mL or 1 μg/mL). After 6 hrs, indicated concentrations of Venetoclax, 5-Azacytidine or the combination were added to the culture. Relative numbers of live Raji (A) or JVM2 (B) were monitored after 48 hrs by flow cytometry. […] N=6, each dot represents one healthy donor, * p<0.05, ** p<0.01, 2 way ANOVA.
(§2) The effect of Venetoclax and 5-Azacytidine on BTN3A activating antibody-induced killing of Burkitt Lymphoma and Chronic-B-cell leukemia cell lines by Vγ9Vδ2 T cells was assessed by measuring the relative number of surviving target cells in a HD-PBMC-Target cell co-culture using flow cytometry.
Background: In flow cytometry, cells or beads pass a laser one at a time.

For test [3], the system named is JVM-2 (Chronic B-cell leukemia). As to the kind of experiment: Killing of JVM-2 cells in co-culture with HD-PBMC (flow cytometry). The settings on record: co-culture with HD-PBMC ratio 5:1, 48 hrs. On the procedure: as §1, §2
In test [4] the test system is MOLM14 cells. In words: Killing of MOLM14 AML cells in co-culture with HD-PBMC (flow cytometry). Conditions: ICT01 0.1 μg/mL, HD-PBMC ratio 5:1, 2 days. Here is the method:
KG1a or MOLM14 AML cell lines were co-cultured with HD-PBMC at ratio 5:1 in presence of ICT01 or isotype control (0.1 μg/mL). After 6 hrs, indicated concentrations of ABT-737, Navitoclax or MIK665 were added to the culture. A) Relative numbers of live KG1a cells (Mean±SEM) after 2 days of co-culture with HD-PBMC in presence of ICT01 (black) or its isotype control hIgG1S (light grey) and treatment with indicated concentration of ABT-737. B) Relative numbers of live KG1a cells (Mean±SEM) after 2 days of co-culture with HD-PBMC in presence of ICT01 (black) or its isotype control hIgG1S (light grey) and treatment with indicated concentration of Navitoclax. C) Relative numbers of live MOLM14 cells (Mean±SEM) after 2 days of co-culture with HD-PBMC in presence of ICT01 (black) or its isotype control hIgG1S (light grey) and treatment with indicated concentration of MIK665. N=6 HD, each dot represents one healthy donor, * p<0.05, 2 way ANOVA.
The effect of the three Bcl-2 family member inhibitors ABT-737, Navitoclax and MIK665, on ICT01-induced killing of AML cell lines by Vγ9Vδ2 T cells was assessed by measuring the relative number of surviving target cells in a HD-PBMC-AML cells co-culture using flow cytometry.
For assays using ABT-737 or Navitoclax, KG1a cells were used. […] Therefore, MOLM14 cells, which express MCL-1, were used in killing assays assessing the activity of ICT01 combined with MIK665.

For the molecule `Nc1ncn([C@@H]2O[C@H](CO)[C@@H](O)[C@H]2O)c(=O)n1` [5-Azacytidine, 4-amino-1-[(2R,3R,4S,5R)3,4-dihydroxy-5-(hydroxymethyl)oxolan-2-yl]-1,3,5-triazin-2-one], in test [1], the “ICT01 and IL2-induced proliferation of Vγ9Vδ2 T cells” value is “unaffected”; the “increase of ICT01-induced proliferation of Vγ9Vδ2 T cells” value was “not observed”.
For the molecule `CC1(C)CCC(CN2CCN(c3ccc(C(=O)NS(=O)(=O)c4ccc(NCC5CCOCC5)c([N+](=O)[O-])c4)c(Oc4cnc5[nH]ccc5c4)c3)CC2)=C(c2ccc(Cl)cc2)C1` [Venetoclax, 4-[4-[[2-(4-chlorophenyl)-4,4-dimethylcyclohexen-1-yl]methyl]piperazin-1-yl]-N-[3-nitro-4-(oxan-4-ylmethylamino)phenyl]sulfonyl-2-(1H-pyrrolo[2,3-b]pyridin-5-yloxy)benzamide], in test [1], the “ICT01 and IL2-induced proliferation of Vγ9Vδ2 T cells” value is given as “unaffected”; the “increase of ICT01-induced proliferation of Vγ9Vδ2 T cells” value was ~ 10%.
Consider “ICT01: humanized BTN3A activating antibody of mAb 7.2, heavy chain SEQ ID NO: 4, light chain SEQ ID NO: 6, silent IgG1 L247F/L248E/P350S”, for which, in test [2], the “decrease of live Raji cells as compared to hIgG1S alone condition (control)” value is listed as ~ 22%. For the same molecule, the “decrease of live JVM-2 cells as compared to hIgG1S alone condition (control)” value in test [3] is recorded as ~ 16%. The “MOLM14 cell death as compared to control condition” value in test [4] is listed as ~ 56%.
